From patent publication US11773127B2, “Compounds and methods for treating bacterial infections” (Washington University, priority 2017, dated 2023)
Where two headings read alike, the source gives them in different places.

Molecular target: T1, FmlHLD (Escherichia coli, UniProt P77588)
T1 construct: 6xHis (C); made in house; host or cells: E. coli C600, periplasm, pTRC99a
Experiment: biochemical
Type: binding, E. coli
Details: for PI100 (percent inhibition): galactoside at 100 μM; for inhibitory potency against FmlH, in words: ELISA-based competition assay
Description: Thereafter, wells were incubated with 200 μl blocking buffer (PBS+1% BSA) for 2 hours at 23° C., followed by incubation with 100 μl biotinylated FmlHLD diluted in blocking buffer to 20 μg/ml in the presence or absence of the tested compounds for 1 hr at 23° C. After washing 3× with PBS+0.05% TWEEN-20, 100 μl Streptavidin-HRP conjugate (BD Biosciences; 1:2000 dilution in blocking buffer) was added to each well for 1 hr at 23° C. After a final round of washing, plates were developed with 100 μl Tetramethylbenzidine (TMB, BD Biosciences) substrate, quenched within 1-2 min with 50 μl […], and absorbance measured at 450 nm.
Select top hit compounds and few low-scoring analogs from the virtual screening, as well as synthetic galactosides, were tested in the ELISA-based competition assay for their ability to inhibit binding of FmlHLD to ds-BSM. The ELISA assay was performed using the protocol described in Example 18. […] All compounds were tested at 100 μM; a subset was tested at 10 μM; and the strongest subset was additionally tested at 1 μM. […] Percent inhibition (PI) values are reported as the mean with standard error of the mean for galactosides tested at 100 μM (PI100), 10 μM (PI10), and 1 μM (PI1) in the ELISA-based competition assay. […] The “thio” designation indicates a sulfur linkage between the sugar and the aglycone group, the “phospho” designation indicates a phosphate group attached the C6-hydroxyl group on the sugar, and the “uro” designation indicates galacturonide as the sugar.
The ELISA assay was performed using the protocol described in Example 18. All compounds were tested at 1 μM and a subset was additionally tested at 100 nM. Average percent inhibition (PI) values are reported for compounds tested at 1 μM (PI1) and 100 nM (PI0.1).
Briefly, 1 μg bovine submaxillary mucin (Sigma) in 100 uL PBS were incubated with Immulon 4HBX 96-well plates overnight prior to treatment with 1 mU Arthrobacter ureafaciens sialidase for 1 hour at 37° C. to remove terminal sialic acid sugars. Wells were then blocked with 200 μL PBS+1% BSA for 2 hours at room temperature. Biotinylated FmlH^LD was diluted to 20 μg/mL in blocking buffer and incubated in the presence or absence of compounds serially diluted 2× down eight rows for 1 hour at room temperature. Wells were washed three times with PBS 0.05% TWEEN-20 then incubated with 100 μL of streptavidin-HRP conjugate (BD Biosciences; 1:2,000 dilution in blocking buffer) for one hour. After three additional PBS+0.05% TWEEN washes, plates were developed with 100 μL of tetramethylbenzidine (BD Biosciences) substrate and quenched with 50 μL of 1 M H2SO4. Total bound portion concentration was measured by the absorbance at 450 nm. IC50s were determined using the Graphpad Prism software.
The compounds synthesized herein were tested in the ELISA-based competition assay for their ability to inhibit binding of FmlHLD to ds-BSM. The ELISA assay was performed using the protocol described in Example 18. Compounds were tested at […], 1 μM, and 100 nM. as indicated on the table. […] ND means the corresponding value was not determined for this summary (but may be available elsewhere in the Examples).

[1] = read-out: % Inhibition at [μM] [1], compound at 1 μM, inhibition of FmlHLD binding to ds-BSM
[2] = read-out: PI(1) (average percent inhibition), compound at 1 μM, Table 4
[3] = mean with standard error of the mean, 100 µM
[4] = read-out: PI1 (percent inhibition), galactoside at 1 μM, mean with standard error of the mean
[5] = read-out: PI10 (percent inhibition), galactoside at 10 μM, mean with standard error of the mean
[6] = read-out: PI100 (percent inhibition), galactoside at 100 μM, mean with standard error of the mean
[7] = IC50, inhibition of FmlHLD binding to ds-BSM
[8] = IC50 (μM), Table 5, Gal and GalNAc inhibition of FmlH
[9] = read-out: % Inhibition at [μM] [0.1], compound at 0.1 μM (100 nM), inhibition of FmlHLD binding to ds-BSM
[10] = read-out: PI (0.1) (average percent inhibition), compound at 100 nM, Table 4

T1 sequence (P77588 25-182): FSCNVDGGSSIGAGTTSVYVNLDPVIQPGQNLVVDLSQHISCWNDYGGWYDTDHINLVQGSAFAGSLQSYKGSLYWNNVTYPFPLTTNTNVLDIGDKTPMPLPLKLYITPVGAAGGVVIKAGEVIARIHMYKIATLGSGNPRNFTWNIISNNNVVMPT

CC(=O)N[C@H]1[C@H](Oc2ccc3ccncc3c2)O[C@H](CO)[C@H](O)[C@@H]1O [AM2002, N-((2S,3R,4R,5R,6R)-4,5-dihydroxy-6-(hydroxymethyl)-2-(isoquinolin-7-yloxy)tetrahydro-2H-pyran-3-yl)acetamide]
inhibition at 1 µM [1]: 20.2%
inhibition at 1 µM [2]: 20.2%

OC[C@H]1O[C@@H](Oc2ccc3ccccc3c2)[C@H](O)[C@@H](O)[C@H]1O [2-napthyl Gal, reference compound]
inhibition at 10 µM (read-out: % Inhibition at [μM] [10], compound at 10 μM, inhibition of FmlHLD binding to ds-BSM): 14.6%
inhibition at 100 µM (read-out: % Inhibition at [μM] [100], compound at 100 μM, inhibition of FmlHLD binding to ds-BSM): 78.8%

COC(=O)c1cccc(-c2ccccc2O[C@@H]2O[C@H](CO)[C@H](O)[C@H](O)[C@H]2O)c1 [Compound 30β, 2′-(α/β-D-galactopyranosyloxy)-[1,1′-Biphenyl]-3-carboxylic acid methyl ester]
PI100 (percent inhibition) [3]: 86.6 ± 0.8%
inhibition at 1 µM [4]: 3.7 ± 3.5%
inhibition at 10 µM [5]: 22.4 ± 2.6%
inhibition at 100 µM [6]: 87%

OC[C@H]1O[C@@H](Oc2c[nH]c3ccccc23)[C@H](O)[C@@H](O)[C@H]1O [Compound 16β]
PI100 (percent inhibition) [3]: 21.7 ± 2.4%
inhibition at 100 µM [6]: 22%

CC(=O)N[C@H]1[C@H](Oc2ccc([N+](=O)[O-])cc2)O[C@H](CO)[C@@H](O)[C@@H]1O[C@@H]1O[C@H](CO)[C@H](O)[C@H](O)[C@H]1O [Compound 34, p-nitrophenyl Gal-β1-3-GlcNAc, reference compound]
PI100 (percent inhibition) (mean with standard error of the mean): −3.6 ± 1.0%

CC(=O)N[C@H]1[C@H](Oc2cccc(F)c2-c2cccc(NS(C)(=O)=O)c2)O[C@H](CO)[C@H](O)[C@@H]1O [AM2109]
IC50 [7]: 0.151 µM

O=C(O)c1cc(-c2ccccc2O[C@@H]2O[C@H](CO)[C@H](O)[C@H](O)[C@H]2O)cc([N+](=O)[O-])c1 [AM2050, 5-nitro-2′-(((2S,3R,4S,5R,6R)-3,4,5-trihydroxy-6-(hydroxymethyl)tetrahydro-2H-pyran-2-yl)oxy)-[1,1′-biphenyl]-3-car oxylic acid]
potency relative to matched pair Gal/GalNAc derivative (2038 vs 2043, 2050 vs 3029): 6 fold
IC50 [8]: 0.28 µM
IC50 [7]: 0.418 µM
inhibition at 0.1 µM [9]: 7.6%
inhibition at 1 µM [1]: 68%
inhibition at 0.1 µM [10]: 7.6%
inhibition at 1 µM [2]: 68%

COc1ccc(C(=O)O)cc1-c1ccccc1O[C@@H]1O[C@H](CO)[C@H](O)[C@H](O)[C@H]1NC(C)=O [Compound 2051, 2′-(((2S,3R,4R,5R,6R)-3-acetamido-4,5-dihydroxy-6-(hydroxymethyl)tetrahydro-2H-pyran-2-yl)oxy)-6-methoxy-[1,1′-biphenyl]-3-carboxylic acid]
inhibitory potency against FmlH, in words: weakest activity
IC50 [8]: 3.87 µM
drop in activity relative to 29β-NAc (IC50 ratio): 6 fold
inhibition at 0.1 µM [10]: 0%
inhibition at 1 µM [2]: 15.9%

CC(=O)N[C@H]1[C@@H](Oc2ccc([N+](=O)[O-])cc2)O[C@H](CO)[C@H](O)[C@@H]1O[C@@H]1O[C@H](CO)[C@H](O)[C@H](O)[C@H]1O [Gal-b1-3-PNPGalNAc, reference compound]
% Inhibition at [μM] [100] (compound at 100 μM, inhibition of FmlHLD binding to ds-BSM): 15.28%

CC(=O)N[C@H]1[C@H](Oc2ccccc2-c2cccc(OS(C)(=O)=O)c2)O[C@H](CO)[C@H](O)[C@@H]1O [AM2078, 2′-(((2S,3R,4R,5R,6R)-3-acetamido-4,5-dihydroxy-6-(hydroxymethyl)tetrahydro-2H-pyran-2-yl)oxy)-[1,1′-biphenyl]-3-yl methanesulfonate]
inhibitory potency against FmlH, in words: equal or slightly reduced potency
IC50 [8]: 0.89 µM
inhibition at 0.1 µM [9]: 2%
inhibition at 1 µM [1]: 32.5%
inhibition at 0.1 µM [10]: 2%
inhibition at 1 µM [2]: 32.5%

Cc1cc(=O)oc2cc(O[C@@H]3O[C@H](CO)[C@H](O)[C@H](O)[C@H]3O)ccc12 [Compound 12β]
PI100 (percent inhibition) [3]: 85.3 ± 0.7%
inhibition at 1 µM [4]: 8.7 ± 3.1%
inhibition at 10 µM [5]: 19.7 ± 4.2%
inhibition at 100 µM [6]: 85%
